Experimental data: patent US20170112877A1, “NON-TOXIC AGENT FOR A BROAD-SPECTRUM, BACTERICIDAL OR BACTERIOSTATIC TREATMENT OF ANTIBIOTIC-RESISTANT BACTERIA IN ANIMALS” (LIVELEAF, INC., priority 2015, published 2017)
Each block holds one molecule with its values, some of them ahead of it.

Key:
E. coli [1] = experiment: Stability of hydrogen peroxide in aqueous solution, bound compositions vs free hydrogen peroxide, challenged with E. coli; assay type: physicochemical; details: for hydrogen peroxide concentration: 125 ppm extract + 125 ppm H2O2 (1:1), E. coli 10^6 CFU/ml
Text: This method tests the stability of the hydrogen peroxide in the combination. The testing methods used follow the standard procedures set-forth by the Clinical and Laboratory Standards Institute (CLSI) and US Pharmacopeia. • i. E. coli was chosen as the bacteria to challenge the stability of the bound compositions and the free hydrogen peroxide. • ii. The hydrogen peroxide concentration was matched to the selected bacteria in order to form a useful curve representing hydrogen peroxide degradation over time for the samples. […] FIG. 2A compares stabilities of free hydrogen peroxide to hydrogen peroxide bound to each of: gallic acid (a model polyphenol building block), tannic acid (a model polyphenol), pomegranate husk extract, green tea extract, and Blessed thistle extract. […] John's wort, Valerian, Apple, Grape, Echinacea purpurea, Grape seed extract, and Blueberry. In both FIGS. 2A and 2B, there are curves that cannot be identified well individually, as they are identical and overlapping. […]

E. coli [2] = experiment: Antibacterial activity against E. coli in Muller-Hinton broth; assay type: cell-based; details: 100 ppm, 24 hours at 37° C.
Text: (§1) The testing methods used follow the procedures set-forth by the Clinical and Laboratory Standards Institute (CLSI) and US Pharmacopeia.
(§2) E. coli was chosen as the bacteria to challenge the antibacterial activity of the bound compositions and the free hydrogen peroxide. A range of E. coli concentrations, ranging from 10-10^6 CFU/ml were used for the study. […]
(§3) Table 2 compares the antibacterial activities of each of the model compounds and extracts alone, without the formation of the bound compositions: gallic acid (a model polyphenol building block), tannic acid (a model polyphenol), pomegranate husk extract, and green tea extract were each used to challenge the E. coli alone. […]

E. coli [3] = experiment: as above; assay type: cell-based; set-up: key: “+” means identifiable bacterial growth.; “−” means no bacterial growth; details: 100 ppm, 24 hours at 37° C.
Text: as §1, §2, §3

E. coli [4] = experiment: as above; assay type: cell-based; set-up: key: “+” means positive identification of bacterial growth; details: compound or extract alone, head 1%, 24 hours at 37° C.
Text: as §1, §2, §3

[5] = Amount of hydrogen peroxide bound to model compounds or extracts in dry form (peroxide test strip); assay type: physicochemical
Text: Art-recognized procedures, such as those set-forth at least in U.S. Pat. Nos. 3,860,694; 3,864,454; 4,171,280; and 4,966,762, were used as a guide for this study. […] As discussed, one of skill will appreciate that hydrogen peroxide in a free form, for example, would otherwise quickly degrade. The polyphenols were provided from model compounds or plant extracts. A dry form of the compositions was made between (i) gallic acid (a model polyphenol building block from Sigma-Aldrich) and hydrogen peroxide; (ii) tannic acid (a model polyphenol component from Sigma-Aldrich) and hydrogen peroxide; (iii) pomegranate husk extract and hydrogen peroxide; and, (iv) green tea extract and hydrogen peroxide, using the procedures taught herein, including: • i. adding a solution of 35% hydrogen peroxide slowly into each of the gallic acid powder, tannic powder, pomegranate husk extract powder, or green tea extract powder. […] The hydrogen peroxide concentration measurements were taken using standard methods to determine the amount of hydrogen peroxide that bound to the model compounds or extracts in the dry form.

SMILES: OO [H2O2, hydrogen peroxide]
- hydrogen peroxide concentration (E. coli [1]; 0 Hours): 125 ppm
- hydrogen peroxide concentration (E. coli [1]; 4 Hours): 15 ppm
- hydrogen peroxide concentration (E. coli [1]; 8 Hours): 0 ppm
- hydrogen peroxide concentration (E. coli [1]; 12 Hours): 0 ppm
- hydrogen peroxide concentration (E. coli [1]; 16 Hours): 0 ppm
- hydrogen peroxide concentration (E. coli [1]; 20 Hours): 0 ppm
- hydrogen peroxide concentration (E. coli [1]; 24 Hours): 0 ppm
- hydrogen peroxide concentration after degradation (E. coli [1]; within about the first 8 hours): ~0.0 ppm
- fate of E. coli, all concentrations (E. coli [2]): managed to survive
- bacterial growth (E. coli [3]; E coli 10^2 CFU/ml): +
- bacterial growth (E. coli [3]; E coli 10^3 CFU/ml): +
- bacterial growth (E. coli [3]; E coli 10^4 CFU/ml): +
- bacterial growth (E. coli [3]; E coli 10^5 CFU/ml): +

- hydrogen peroxide bound, by total dry wt [5]: about 2.5%
SMILES: O=C(OC[C@H]1O[C@@H](OC(=O)c2cc(O)c(O)c(OC(=O)c3cc(O)c(O)c(O)c3)c2)[C@H](OC(=O)c2cc(O)c(O)c(OC(=O)c3cc(O)c(O)c(O)c3)c2)[C@@H](OC(=O)c2cc(O)c(O)c(OC(=O)c3cc(O)c(O)c(O)c3)c2)[C@@H]1OC(=O)c1cc(O)c(O)c(OC(=O)c2cc(O)c(O)c(O)c2)c1)c1cc(O)c(O)c(OC(=O)c2cc(O)c(O)c(O)c2)c1 [Tannic Acid, tannic acid]
- bacterial growth (E. coli [4]; E coli 10 CFU/ml): +
- bacterial growth (E. coli [4]; E coli 10^2 CFU/ml): +
- bacterial growth (E. coli [4]; E coli 10^3 CFU/ml): +
- bacterial growth (E. coli [4]; E coli 10^4 CFU/ml): +
- bacterial growth (E. coli [4]; E coli 10^5 CFU/ml): +
- bacterial growth (E. coli [4]; E coli 10^6 CFU/ml): +

- hydrogen peroxide bound, by total dry wt [5]: about 3.0%
SMILES: O=C(O)c1cc(O)c(O)c(O)c1 [Gallic Acid, gallic acid]
- bacterial growth (E. coli [4]; E coli 10 CFU/ml): +
- bacterial growth (E. coli [4]; E coli 10^2 CFU/ml): +
- bacterial growth (E. coli [4]; E coli 10^3 CFU/ml): +
- bacterial growth (E. coli [4]; E coli 10^4 CFU/ml): +
- bacterial growth (E. coli [4]; E coli 10^5 CFU/ml): +
- bacterial growth (E. coli [4]; E coli 10^6 CFU/ml): +
